Measurements from article PMC5740381 (Antimicrobial Agents and Chemotherapy, 2017).
“And” between values parts separate entries of the source, which are not always exact repeats. Identical values can stand only once.

Legend:
[1] = tested on: HCV replicons with genotype 2b patient proteases; assay: Transient replicon assay with proteases from HCV-infected patients; type: cell-based; settings: Hepatitis C virus, read-out: EC50 Range
Description: Each of the NS3 gene sequences from genotypes 1, 2, and 4, with the exception of two genotype 2b sequences, was derived from serum or plasma from an HCV-infected patient by bulk PCR amplification, producing a population of sequences representing the viral quasispecies. Two genotype 2b sequences were synthesized based on the consensus sequences of the respective samples. One genotype 3a sequence was synthesized based on a consensus sequence from the sequences available in the Los Alamos HCV sequence database, and another genotype 3a sequence was a clonal sequence derived from a patient sample. The genotype 5a sequence (strain SA13) was synthesized based on the published sequence of the HCV isolate ([48]).
For the analysis of NS3 sequences from patients, we defined a polymorphism to be an amino acid difference in the sequence of a baseline sample relative to the sequence of the appropriate HCV subtype reference sequence: genotype 1a H77 (GenBank accession number NC_004102), genotype 1b Con1 (GenBank accession number AJ238799), genotype 2a JFH-1 (GenBank accession number AB047639), genotype 2b HC-J8 (GenBank accession number D10988), genotype 3a S52 (GenBank accession number GU814263), genotype 4a ED43 (GenBank accession number GU814265), genotype 4d QC382 (GenBank accession number FJ462437), and genotype 5a SA13 (GenBank accession number AF064490). […]

[2] = tested on: HCV genotype 4a replicon cells; assay: Drug-resistant colony selection in replicon cells; type: cell-based, Hepatitis C virus
Description: (§1) . After approximately 3 weeks of treatment, the surviving replicon colonies in one plate for each selection condition were stained with crystal violet and counted, whereas approximately 20 to 30 colonies in a replicate plate or most of the colonies, if less than 20 colonies survived the selection, were picked and further expanded for genotyping. The expanded colonies were lysed in CellsDirect lysis buffer (Invitrogen, MA), and the NS3-coding region from each colony was amplified by reverse transcription-PCR and sequenced. For genotype 1a, 1b, 2a, and 5a colonies, the full-length NS3 sequence was determined, whereas for colonies of the chimeric replicon containing the N-terminal region of NS3 from genotype 2b, 3a, 4a, or 6a, the sequence encoding the NS3 N-terminal region was determined. We defined a substitution in a replicon to be an amino acid difference in a sequence from a posttreatment sample relative to the sequence of the corresponding untreated sample. For resistance selection studies, NS3 substitutions detected at the following amino acid positions associated with resistance to the HCV PI class in >2 colonies in each replicon selection are reported: 36, 43, 54, 55, 56, 80, 122, 155, 156, and 168. In addition, substitutions detected at other amino acid positions in the NS3 protease domain in >2 colonies in each replicon selection are also reported.

[3] = tested on: HCV genotype 5a replicon cells; assay: Drug-resistant colony selection in replicon cells; type: cell-based, Hepatitis C virus
Description: as §1

[4] = tested on: HCV genotype 2b replicon cells; assay: Drug-resistant colony selection in replicon cells; type: cell-based, Hepatitis C virus
Description: as §1

[5] = tested on: HCV genotype 2a replicon cells; assay: Drug-resistant colony selection in replicon cells; type: cell-based, Hepatitis C virus
Description: as §1

HCV NS3/4A protease GT2b = HCV NS3/4A protease GT2b (Hepatitis C virus genotype 2b, UniProt P26661); assay: HCV NS3/4A protease biochemical assay; settings: 30 min preincubation, read-out: Mean IC50 ± SD
Description: (§2) . […] Genes encoding NS3/4A were derived from laboratory strains 1a-H77 (GenBank accession number NC_004102) and 1b-N (GenBank accession number AF139594) or from clinical samples from patients infected with genotype 2a, 2b, 3a, or 4a. All patients provided written informed consent. Clinical studies were designed according to Good Clinical Practice guidelines, the Declaration of Helsinki, and applicable local regulations, with independent ethics committee or institutional review board approval for all study sites. The genotype 5a NS3/4A gene sequence was synthetically constructed based on the sequence of the clinical isolate SA13 (GenBank accession number AF064490) ([48]), whereas the genotype 6a NS3/4A gene sequence was synthetically constructed based on a consensus sequence derived from the alignment of 15 genotype 6a sequences available in GenBank. The NS3/4A genes were each cloned into the protein expression vector pET14b (Novagen, Madison, WI), and a clone with an NS3/4A protease sequence that matched the consensus sequence for each sample was subsequently selected for protein expression and purification. Protease activity was measured by continuous monitoring of the fluorescence change associated with the cleavage of a fluorogenic depsipeptide (EDANS/DABCYL) substrate using a purified recombinant HCV NS3/4A protease as described previously ([49]). […]

HCV NS3/4A protease GT6a = HCV NS3/4A protease GT6a (Hepatitis C virus genotype 6a, UniProt O39927); assay: HCV NS3/4A protease biochemical assay; settings: 30 min preincubation, read-out: Mean IC50 ± SD
Description: as §2

HCV NS3/4A protease GT1b = HCV NS3/4A protease GT1b (Hepatitis C virus genotype 1b, UniProt Q9WPH5); assay: HCV NS3/4A protease biochemical assay; settings: 30 min preincubation, read-out: Mean IC50 ± SD
Description: as §2

HBV = assay: Anti-HBV assay, extracellular HBV DNA by quantitative PCR; type: cell-based; settings: Hepatitis B virus, read-out: Mean EC50 ± SD
MTT cytotoxicity assay = settings: human
Experimental: For MT4 cells, 10,000 cells/well were plated immediately before the addition of glecaprevir. The rest of the assay was performed as described previously ([33]).

[6] = tested on: HCV subgenomic stable replicon GT1b Con1; type: cell-based, Hepatitis C virus; settings: 0% human plasma, read-out: Mean EC50 ± SD
Description: (§3) Five of these nine cell lines have been described previously, including those transfected with genotypes 1a H77, 1b Con1, 3a, 4a, and 6a ([28]). […] The genotype 2b and 6e NS3 sequences were each synthetically constructed based on a consensus sequence derived from the alignment of 15 genotype 2b and 4 genotype 6e sequences, respectively. All replicon constructs were bicistronic subgenomic replicons similar to those described by Bartenschlager and coworkers, and the replicon cell lines were generated by introducing these constructs into cells of an Huh-7 human hepatoma-derived cell line ([50]). The inhibitory effect of the PIs on HCV replication in replicon cells was determined in Dulbecco's modified Eagle medium containing 5% fetal bovine serum with or without 40% human plasma (Bioreclamation, Westbury, NY). The EC50s were determined using nonlinear regression curve fitting as described previously ([33]).

[7] = tested on: HCV subgenomic stable replicon GT2a JFH-1; type: cell-based, Hepatitis C virus; settings: GT2a JFH-1 stable replicon, 0% human plasma; read-out: Mean EC50 ± SD
Description: as §3

[8] = tested on: HCV subgenomic stable replicon GT1a H77; type: cell-based, Hepatitis C virus; settings: 0% human plasma, read-out: Mean EC50 ± SD
Description: as §3

Structure (SMILES) | EC50 [1] [nM] | Colony survival ([2]; 10× EC50) [%] | Colony survival ([2]; 100× EC50) [%] | Colony survival ([3]; 10× EC50) [%] | Colony survival ([3]; 100× EC50) [%] | Colony survival ([4]; 10× EC50) [%] | Colony survival ([4]; 100× EC50) [%] | Colony survival ([5]; 10× EC50) [%] | Colony survival ([5]; 100× EC50) [%] | IC50 (HCV NS3/4A protease GT2b) [nM] | IC50 (HCV NS3/4A protease GT6a) [nM] | IC50 (HCV NS3/4A protease GT1b) [nM] | EC50 (HBV) [µM] | CC50 (MTT cytotoxicity assay) | EC50 [6] [nM] | EC50 [7] [nM] | EC50 [8] [nM]
CC(C)(C)[C@@H]1NC(=O)O[C@@H]2CCC[C@H]2OC/C=C/C(F)(F)c2nc3ccccc3nc2O[C@@H]2C[C@@H](C(=O)N[C@]3(C(=O)NS(=O)(=O)C4(C)CC4)C[C@H]3C(F)F)N(C2)C1=O [Glecaprevir, (3aR,7S,10S,12R,21E,24aR)-7-tert-butyl-N-[(1R,2R)-2-(difluoromethyl)-1-{[(1-methylcyclopropyl)sulfonyl]carbamoyl}cyclopropyl]-20,20-difluoro-5,8-dioxo-2,3,3a,5,6,7,8,11,12,20,23,24a-dodecahydro-1H,10H-9,12-methanocyclopenta[18,19][1,10,17,3,6]trioxadiazacyclononadecino[11,12-b]quinoxaline-10-carboxamide] | 1.4 to 3.2 | 0.0015 | 0.0018 | 0.001 | 0 | >0.05 | >0.05 | >0.05 | >0.05 | 3.8 ± 0.96 | 11.3 ± 1.8 | 8.9 ± 1.6 | > 32 | 72 µM and 60 µg/mL |  |  | 
C=C[C@@H]1C[C@]1(NC(=O)[C@@H]1C[C@@H]2CN1C(=O)[C@H](C(C)(C)C)NC(=O)O[C@@H]1C[C@H]1CCCCCc1nc3ccc(OC)cc3nc1O2)C(=O)NS(=O)(=O)C1CC1 [Grazoprevir] |  |  |  |  |  |  |  |  |  |  |  |  |  |  | 1 ± 0.17 | 8.6 ± 3 | 0.37 ± 0.05
